Results: ChEMBL document CHEMBL1201862, “PubChem BioAssay data set” (2004)
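Five concentrations, 48 hours, 96-well plates. GI50 = concentration required for 50% inhibition of growth.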 The source made the active and inactive calls. Rule as the data show it: active = GI50 up to about 1.1 µM and inactive = higher.

Key:
Assay in all cases: growth of human tumour cells (NCI), 48 h
[1] = tested on: A549
[2] = tested on: CAKI-1
[3] = tested on: EKVX
[4] = tested on: HCC 2998
[5] = tested on: HL-60
[6] = tested on: HT-29
[7] = tested on: K562
[8] = tested on: KM-20L2
[9] = tested on: M14
[10] = tested on: Malme-3M
[11] = tested on: NCI-H226
[12] = tested on: OVCAR-3
[13] = tested on: OVCAR-4
[14] = tested on: OVCAR-8
[15] = tested on: RPMI-8226
[16] = tested on: SF-268
[17] = tested on: SK-MEL-28
[18] = tested on: U-251

Measured: GI50

C[C@]12CCc3nn(-c4ccccc4)nc3C1CC[C@@H]1C2CC[C@]2(C)C(=O)CCC12 (stereo partly specified)
inactive: [1] > 100 µM | [2] > 100 µM | [3] > 100 µM | [4] > 100 µM | [5] > 100 µM | [6] > 100 µM | [7] 54.3 µM | [8] > 100 µM | [9] > 100 µM | [10] > 100 µM | [11] > 100 µM | [12] > 100 µM | [13] > 100 µM | [14] 94.2 µM | [15] > 100 µM | [16] > 100 µM | [17] > 100 µM | [18] > 100 µM

Nc1c([N+](=O)[O-])nc(Cl)c2nncn12
inactive: [1] > 100 µM | [2] > 100 µM | [3] > 100 µM | [4] > 100 µM | [5] > 100 µM | [6] 96.8 µM | [7] > 72.4 µM | [8] > 87.1 µM | [9] > 100 µM | [10] > 100 µM | [11] > 100 µM | [12] > 100 µM | [13] > 100 µM | [14] > 100 µM | [15] > 47.1 µM | [16] > 87.9 µM | [17] > 100 µM | [18] > 71.9 µM
